In ChEMBL document CHEMBL3774375, “Structure-Based Identification of Inhibitory Fragments Targeting the p300/CBP-Associated Factor Bromodomain” (J Med Chem, 2016):
Active and inactive are the calls of the source. No cut-off for these calls is given here.

How the values were obtained:
[1] = target: T1, Histone acetyltransferase KAT2B (Homo sapiens, UniProt Q92831)
Target sequence in this assay (Q92831 whole entry, looked up): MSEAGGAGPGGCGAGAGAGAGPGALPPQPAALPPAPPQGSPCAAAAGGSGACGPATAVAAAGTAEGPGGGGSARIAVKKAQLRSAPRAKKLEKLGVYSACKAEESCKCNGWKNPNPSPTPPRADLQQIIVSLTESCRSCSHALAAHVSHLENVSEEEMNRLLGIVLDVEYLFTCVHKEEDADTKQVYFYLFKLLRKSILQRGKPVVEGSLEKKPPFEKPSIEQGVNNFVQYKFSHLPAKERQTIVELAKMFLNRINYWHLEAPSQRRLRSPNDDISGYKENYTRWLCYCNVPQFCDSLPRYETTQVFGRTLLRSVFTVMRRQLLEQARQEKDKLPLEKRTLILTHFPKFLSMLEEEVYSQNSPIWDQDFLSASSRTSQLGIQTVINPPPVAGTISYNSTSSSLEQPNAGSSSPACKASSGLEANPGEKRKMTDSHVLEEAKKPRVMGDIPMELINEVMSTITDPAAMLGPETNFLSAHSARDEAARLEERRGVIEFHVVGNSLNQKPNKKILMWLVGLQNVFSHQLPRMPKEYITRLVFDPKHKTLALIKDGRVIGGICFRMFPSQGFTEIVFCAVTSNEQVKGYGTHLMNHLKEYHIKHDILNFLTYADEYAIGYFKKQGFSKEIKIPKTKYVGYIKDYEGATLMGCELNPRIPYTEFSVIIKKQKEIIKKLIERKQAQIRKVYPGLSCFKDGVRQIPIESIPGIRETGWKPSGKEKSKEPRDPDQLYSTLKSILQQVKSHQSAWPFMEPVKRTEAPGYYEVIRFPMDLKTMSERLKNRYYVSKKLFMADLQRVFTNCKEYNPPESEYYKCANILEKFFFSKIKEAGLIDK
Description: Binding affinity to recombinant N-terminal His-tagged PCAF (715 to 831 residues) (unknown origin) expressed in Escherichia coli Rosetta cells at 1 mM by differential scanning fluorimetry

[2] = target: T2, Bromodomain-containing protein 9 (Homo sapiens) (UniProt Q9H8M2); test: Inhibition of BRD9 (unknown origin) at 25 uM by alphascreen assay
T2 sequence (whole entry): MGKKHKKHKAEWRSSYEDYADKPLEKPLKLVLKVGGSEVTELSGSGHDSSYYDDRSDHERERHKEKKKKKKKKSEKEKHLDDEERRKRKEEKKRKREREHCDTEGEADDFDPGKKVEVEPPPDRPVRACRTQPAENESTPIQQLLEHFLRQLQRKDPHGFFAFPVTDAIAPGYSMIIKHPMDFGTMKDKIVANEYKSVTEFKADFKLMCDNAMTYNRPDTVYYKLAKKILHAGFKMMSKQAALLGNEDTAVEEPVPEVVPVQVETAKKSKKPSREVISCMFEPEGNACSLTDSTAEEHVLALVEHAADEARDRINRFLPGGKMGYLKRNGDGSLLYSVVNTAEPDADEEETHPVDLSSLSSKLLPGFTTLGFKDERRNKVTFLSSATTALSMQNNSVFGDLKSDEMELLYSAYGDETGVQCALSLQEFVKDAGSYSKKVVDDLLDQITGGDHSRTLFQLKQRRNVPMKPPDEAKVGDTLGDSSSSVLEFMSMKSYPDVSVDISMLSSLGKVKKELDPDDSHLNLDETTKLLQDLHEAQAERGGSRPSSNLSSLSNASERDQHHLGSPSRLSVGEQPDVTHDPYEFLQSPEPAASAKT

[3] = target: T1, Histone acetyltransferase KAT2B; test: Binding affinity to recombinant N-terminal His-tagged PCAF (715 to 831 residues) (unknown origin) expressed in Escherichia coli Rosetta cells at 0.5 mM by differential scanning fluorimetry
Target sequence in this assay (Q92831 whole entry, looked up): as the sequence (Q92831 whole entry, looked up) above

[4] = target: T1, Histone acetyltransferase KAT2B; test: Binding affinity to N-terminal His-tagged PCAF (715 to 831 residues) (unknown origin) expressed in Escherichia coli Rosetta cells by isothermal titration calorimetry
Target sequence in this assay (Q92831 whole entry): as the sequence (Q92831 whole entry, looked up) above

[5] = target: Chromatin remodeling regulator CECR2 (Homo sapiens) (UniProt Q9BXF3); test: Binding affinity to recombinant human CECR2 by differential scanning fluorimetry
[6] = target: T3, Bromodomain-containing protein 7 (Homo sapiens) (UniProt Q9NPI1); test: Binding affinity to recombinant human BRD7 by differential scanning fluorimetry
T3 sequence (whole entry): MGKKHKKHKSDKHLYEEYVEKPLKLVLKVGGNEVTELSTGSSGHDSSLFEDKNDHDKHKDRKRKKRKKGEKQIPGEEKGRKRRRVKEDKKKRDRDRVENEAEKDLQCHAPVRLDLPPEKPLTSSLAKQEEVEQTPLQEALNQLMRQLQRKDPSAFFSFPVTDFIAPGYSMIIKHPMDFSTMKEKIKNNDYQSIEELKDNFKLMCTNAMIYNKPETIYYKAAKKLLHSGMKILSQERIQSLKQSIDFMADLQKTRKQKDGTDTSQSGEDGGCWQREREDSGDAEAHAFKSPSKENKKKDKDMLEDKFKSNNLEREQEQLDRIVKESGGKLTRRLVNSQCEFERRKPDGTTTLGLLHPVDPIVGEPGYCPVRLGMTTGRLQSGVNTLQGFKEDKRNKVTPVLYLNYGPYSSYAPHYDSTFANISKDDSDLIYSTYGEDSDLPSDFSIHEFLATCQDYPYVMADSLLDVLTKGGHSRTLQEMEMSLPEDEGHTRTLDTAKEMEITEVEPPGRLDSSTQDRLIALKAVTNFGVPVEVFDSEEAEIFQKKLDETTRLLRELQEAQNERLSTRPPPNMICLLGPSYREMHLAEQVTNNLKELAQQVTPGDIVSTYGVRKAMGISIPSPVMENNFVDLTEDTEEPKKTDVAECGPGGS

Chain of Chromatin remodeling regulator CECR2 (Homo sapiens) (Q9BXF3 whole entry, looked up): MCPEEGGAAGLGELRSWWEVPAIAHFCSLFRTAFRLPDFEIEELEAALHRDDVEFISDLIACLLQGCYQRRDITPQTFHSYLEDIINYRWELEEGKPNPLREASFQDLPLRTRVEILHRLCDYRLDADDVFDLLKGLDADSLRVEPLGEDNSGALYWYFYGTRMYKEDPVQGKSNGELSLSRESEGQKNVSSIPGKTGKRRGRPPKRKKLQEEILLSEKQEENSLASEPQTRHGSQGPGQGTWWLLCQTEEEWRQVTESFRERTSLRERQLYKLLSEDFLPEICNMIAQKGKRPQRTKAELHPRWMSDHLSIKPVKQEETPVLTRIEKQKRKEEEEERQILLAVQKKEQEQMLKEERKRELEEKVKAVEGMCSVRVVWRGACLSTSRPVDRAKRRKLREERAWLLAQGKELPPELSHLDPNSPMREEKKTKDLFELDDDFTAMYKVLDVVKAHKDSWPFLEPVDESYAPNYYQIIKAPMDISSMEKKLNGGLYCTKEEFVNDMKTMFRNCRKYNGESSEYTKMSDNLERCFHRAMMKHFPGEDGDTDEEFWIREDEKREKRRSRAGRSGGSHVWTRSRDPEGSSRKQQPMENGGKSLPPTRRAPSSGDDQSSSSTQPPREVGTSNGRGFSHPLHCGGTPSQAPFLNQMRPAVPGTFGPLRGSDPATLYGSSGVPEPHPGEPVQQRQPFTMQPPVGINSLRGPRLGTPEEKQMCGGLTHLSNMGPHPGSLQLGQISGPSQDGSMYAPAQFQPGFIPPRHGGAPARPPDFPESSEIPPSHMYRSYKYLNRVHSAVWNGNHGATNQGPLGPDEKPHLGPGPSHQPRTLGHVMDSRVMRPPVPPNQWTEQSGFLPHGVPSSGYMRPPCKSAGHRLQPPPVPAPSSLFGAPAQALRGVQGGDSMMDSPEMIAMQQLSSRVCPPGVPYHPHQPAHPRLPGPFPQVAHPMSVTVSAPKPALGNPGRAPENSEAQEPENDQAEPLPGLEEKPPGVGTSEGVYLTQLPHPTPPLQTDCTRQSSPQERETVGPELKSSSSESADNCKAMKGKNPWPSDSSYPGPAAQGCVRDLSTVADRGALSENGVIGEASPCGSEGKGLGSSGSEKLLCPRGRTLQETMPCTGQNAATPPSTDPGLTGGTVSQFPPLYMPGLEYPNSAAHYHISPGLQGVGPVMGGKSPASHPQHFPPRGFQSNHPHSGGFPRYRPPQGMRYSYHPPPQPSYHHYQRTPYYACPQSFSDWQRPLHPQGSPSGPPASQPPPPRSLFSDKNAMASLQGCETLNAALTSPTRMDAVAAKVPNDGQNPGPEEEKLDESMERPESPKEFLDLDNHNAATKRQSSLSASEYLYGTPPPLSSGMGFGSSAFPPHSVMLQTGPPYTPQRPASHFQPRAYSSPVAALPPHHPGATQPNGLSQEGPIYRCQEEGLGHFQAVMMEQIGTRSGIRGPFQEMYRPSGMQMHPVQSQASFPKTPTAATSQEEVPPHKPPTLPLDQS

SMILES	ΔTm [1] [°C]	other results
NCc1ccc(-c2csnn2)cc1	1	
CC(=O)Nc1ccc2c(C)cc(=O)n(C)c2c1	2.6	inhibition [2]: Active
Cc1nn(CCO)c2c1C(=O)CCC2	0.9	
NC1CCN(C(=O)C2CC2)CC1	1	
NC(=O)c1ccc2[nH]ccc2c1	2	
CN1Cc2ccccc2C1=O	1.5	
NC(=O)c1cccc2c1OCCO2	0.8	
Cn1c(=O)ccc2ccccc21	2	
Oc1ccccc1-c1ccno1	1.3	
COC(=O)c1ccc(N2CCOCC2)nc1	0.7	
CNC(=O)c1cc(OCC(=O)Nc2ccccc2)ccc1OC1CCOCC1		ΔTm [3]: 3.3 °C; Kd [4]: 6.8 µM; ΔTm [5]: 7.1 °C; ΔTm [6]: 6.5 °C
Cc1cc(=O)n(C)c2cc(NS(C)(=O)=O)ccc12		inhibition [2]: Active
Cc1c(N)c(=O)n(-c2ccccc2)n1C	0.6	
COc1cccc2onc(N)c12	0.8	
